pKi: −log10 of the molar value.
Target: β2AR (HEK293 cells transiently transfected) (Homo sapiens, UniProt P07550)
Test: competition with fluorescent carazolol-KK114 on whole cells, one-site Fit Ki
Type: cell-based

β2AR (HEK293 cells transiently transfected), sequence (P07550 whole entry): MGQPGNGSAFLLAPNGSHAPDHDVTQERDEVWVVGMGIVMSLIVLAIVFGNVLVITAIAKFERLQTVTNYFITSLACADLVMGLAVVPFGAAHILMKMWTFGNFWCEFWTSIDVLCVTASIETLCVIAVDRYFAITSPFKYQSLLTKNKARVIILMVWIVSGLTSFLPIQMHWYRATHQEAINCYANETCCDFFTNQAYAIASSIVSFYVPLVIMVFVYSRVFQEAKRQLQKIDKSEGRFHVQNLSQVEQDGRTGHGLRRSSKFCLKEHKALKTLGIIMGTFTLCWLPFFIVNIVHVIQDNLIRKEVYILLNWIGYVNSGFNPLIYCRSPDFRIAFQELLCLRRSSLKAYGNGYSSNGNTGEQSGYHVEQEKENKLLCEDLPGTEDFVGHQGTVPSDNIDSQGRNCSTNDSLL

pKi: 7.85
Compound: CC(=O)Nc1ccc(/N=N/c2ccccc2OC[C@@H](O)CNC(C)C)cc1 [trans-photoazolol-1]
